Results as given in publication PMC9863607, “Combined Use of Antimicrobial Peptides with Antiseptics against Multidrug-Resistant Bacteria: Pros and Cons” (Pharmaceutics, 2023).
Peptide text beside a SMILES is read from it.

Tested on: E. coli ML-35p
Assay: Fluorometric resazurin assay of bacterial metabolic activity
Type: cell-based, Escherichia coli
Settings: ¼ MIC AMP + ¼ MIC poviargolum; became comparable to ½ MIC of the peptide
Protocol: The decline in metabolic activity of bacterial cells faced against test substances or their combinations was tracked using resazurin dye, also known as alamarBlue. […] Thus, resazurin-to-resorufin conversion was primarily associated with energy metabolism impairment.
The experimental procedure was basically the same as for permeability testing except for the substitution of the markers by 120 μM resazurin and the addition of 0.1% MHB to provide bacteria with a metabolic substrate. An additional control without both antimicrobials and bacterial cells was included to imitate the zero metabolic activity level. Though resazurin-to-resorufin transformation can be observed via either spectrometry or fluorimetry, the latter was preferred as a more sensitive method. Experiments were conducted in 96-well white opaque plates. Temperature and shaking parameters were left unchanged. Fluorescence intensity was measured at 590 nm with excitation at 560 nm. Data were collected every 3 min for 4–6 h using a Gemini EM plate spectrofluorimeter (Molecular Devices, San Jose, CA, USA).

CC[C@H](C)[C@H](NC(=O)[C@H](CCCNC(=N)N)NC(=O)[C@@H](NC(=O)[C@@H]1CCCN1C(=O)[C@@H]1CCCN1C(=O)[C@H](CCCNC(=N)N)NC(=O)[C@H](CCCNC(=N)N)NC(=O)[C@H](Cc1ccccc1)NC(=O)[C@@H]1CCCN1C(=O)[C@H](CC(C)C)NC(=O)[C@H](CCCNC(=N)N)NC(=O)[C@H](Cc1ccccc1)NC(=O)[C@@H](N)CCCNC(=N)N)[C@@H](C)CC)C(=O)N[C@@H](Cc1c[nH]cn1)C(=O)N1CCC[C@H]1C(=O)N1CCC[C@H]1C(=O)N1CCC[C@H]1C(=O)N[C@@H](Cc1ccccc1)C(=O)N[C@@H](Cc1ccc(O)cc1)C(=O)N1CCC[C@H]1C(=O)N1CCC[C@H]1C(=O)N[C@@H](Cc1ccccc1)C(=O)N[C@@H](CCCNC(=N)N)C(=O)N[C@@H](CCCNC(=N)N)C(=O)N[C@@H](Cc1ccccc1)C(=O)N[C@@H](CC(C)C)C(=O)O [ChBac3.4] (H-RFRLPFRRPPIRIHPPPFYPPFRRFL-OH; N-terminus assumed)
Effect of poviargolum on development of the AMP's suppression of bacterial metabolic activity: significantly accelerated

CC(C)C[C@H](NC(=O)[C@H](CCCNC(=N)N)NC(=O)CNC(=O)CNC(=O)[C@@H](N)CCCNC(=N)N)C(=O)N[C@H]1CSSC[C@@H](C(=O)N[C@H](C(=O)NCC(=O)N[C@@H](CCCNC(=N)N)C(N)=O)C(C)C)NC(=O)[C@H](C(C)C)NC(=O)[C@@H]2CSSC[C@H](NC(=O)[C@H](Cc3ccc(O)cc3)NC1=O)C(=O)N[C@@H](CCCNC(=N)N)C(=O)N[C@@H](CCCNC(=N)N)C(=O)N[C@@H](CCCNC(=N)N)C(=O)N[C@@H](Cc1ccccc1)C(=O)N2 [PG-1, protegrin 1]
Effect of poviargolum on development of the AMP's suppression of bacterial metabolic activity: significantly accelerated
